Data: patent US9205113B2, “Synthetic triterpenoids and methods for modulating stem/progenitor cell gene expression” (Trustees of Dartmouth College, priority 2012, dated 2015)

Key:
[1] = test system: SOX9; assay: Western blot in bone marrow stem cell cultures: SOX9; format: cell-based; settings: 100 nM for 7 days, human BMSC cultures, not detectable in control
Experimental: (§1) Bone Marrow-Derived Stem Cell Culture and Immunoblotting. Human bone marrow-derived stromal cells, which contain a population of responsive mesenchymal stem cells (ScienCell Research Laboratories), were grown in mesenchymal stem cell medium (ScienCell Research Laboratories). Cells were serum-starved 24 hours prior to all experimental conditions. Immunoblotting was performed using the following antibodies at concentrations (and using protocols) recommended by the respective manufacturers: SOX9 (sc-20095, Santa Cruz Biotechnology), collagen IIα1 (sc-7764 and sc-28887, Santa Cruz), aggrecan (ab3778 and ab36861, Abcam), BMP-2 (ab14933, Abcam), phospho-Smad5 (9516, Cell Signaling Technology), Smad5 (9517, Cell Signaling Technology), β-actin (A1978, SigmaeAldrich). HRP-conjugated IgG TRUEBLOT reagents (18-8814, eBioscience) were used at a dilution of 1:1000.
(§2) Further studies on mechanism were pursued in human bone marrow stem cell (BMSC) cultures. […] BMP-2 is known to induce chondrogenic lineage development of human mesenchymal stem cells in culture (Schmitt, et al. (2003) Differentiation 71:567-77).

[2] = test system: collagen type 2; assay: Western blot in bone marrow stem cell cultures: collagen type 2; format: cell-based; settings: 100 nM for 7 days, human BMSC cultures, not detectable in control
Experimental: as §1, §2

[3] = test system: COL2A1; assay: quantitative RT-PCR of calvarial organ cultures: COL2A1; format: cell-based; settings: 7 days of culture, newborn mouse calvaria
Experimental: (§3) Calvarial Organ Cultures. Details have been published previously (Garrett, et al. (2003) J. Clin. Invest. 111:1771-82). Calvaria were cultured in BGJ medium supplemented with 1 mg/mL of bovine serum albumin (Cohn fraction V), 100 U/ml each of penicillin/streptomycin, and 0.292 mg/mL of glutamine. On Day 1, the calvaria were treated with synthetic oleanane triterpenoids. On Day 4, the medium was replaced with fresh medium, again containing synthetic oleanane triterpenoids. On Day 7, calvaria were collected, either stored at −80° C. for further RNA analysis or fixed in 10% buffered formalin for 24 hours and transferred to 80% ethanol for histologic analysis.
(§4) Quantitative RT-PCR (gRT-PCR). Detailed procedures for qRT-PCR are known in the art (Lee, et al. (2006) Biochem. Pharmacol. 72:332-43). In brief, 30 ng of RNA was reverse transcribed to cDNA using the random primers and Applied Biosystems' High Capacity cDNA Archive Kit in a 96-well format MASTERCYCLER Gradient from EPPENDORF. Subsequently, cDNA was amplified with ASSAYS-ON-DEMAND Products containing two gene specific primers and one TAQMAN MGB probe (6-FAM dye-labeled) using the TAQMAN Universal PCR Master Mix in an ABI PRISM 7000 Sequencing Detector (Applied Biosystems). All labeled primers were obtained from Applied Biosystems.
(§5) In addition to the histologic analysis of the calvarial cultures, mechanistic aspects of the action of both CDDO-EA and CDDO-Im were investigated in the calvaria. After 7 days of culture, RNA was isolated from the calvaria and quantitative RT-PCR analysis was performed for more than 15 different markers, including: SOX9, collagen IIα1, all three isoforms of TGF-β, BMPs 2 and 4, BMP receptor II, Smads 3, 4, 6, and 7, tissue inhibitors of metalloproteinases (TIMP-1 and TIMP-2), and matrix metalloproteinase-9 (MMP-9). […] The 50 nM dose was generally ineffective. In contrast, both triterpenoids were strong inhibitors of the expression of MMP-9; CDDO-EA (200 nM) caused almost 80% inhibition of the expression of this metalloproteinase, which is known to be involved in the degradation of cartilage (Shinoda, et al. (2008) J. Biol. Chem. 283:24632-9).

[4] = test system: SOX9; assay: quantitative RT-PCR of calvarial organ cultures: SOX9; format: cell-based; settings: 7 days of culture, newborn mouse calvaria
Experimental: as §3, §4, §5

[5] = test system: newborn mouse calvaria; assay: histologic analysis of calvarial organ cultures (H&E, toluidine blue): chondrogenesis; format: cell-based; settings: 200 nM, 7 days; for induction of chondrogenesis in newborn mouse calvaria (histology): H&E or toluidine blue sections; for formation of proteoglycans such as aggrecan (metachromatic toluidine blue staining): calvarial sections
Experimental: as §3
(§6) Histologic Analysis of Calvaria. After fixation for hours, calvaria were decalcified in EDTA, embedded in paraffin and sectioned at 4 μm. Sections were stained either with modified hematoxylin and eosin (H&E) or with toluidine blue (1% in 70% ethanol for 20 minutes, followed by destaining in 70%, 90% and 100% ethanol for 15 seconds), placed in xylene twice, and then mounted. Procedures for immunofluorescence staining have been described (Medici, et al. (2010) Nat. Med. 74:537-45). Primary antibodies against collagen type II (AB746P, Millipore), were used at 1:100 dilution; ALEXFLUOR secondary antibodies (Invitrogen) at 1:200 dilution. For nuclear staining, To-PRO-3 Iodide (T3605, Invitrogen) was used.
For the results described here, more than 300 individual calvarial organ cultures were performed. […] No new cartilage was seen on control sections stained with either H&E or toluidine blue. […] With toluidine blue, bone stained orthochromatically (blue).
With respect to dose-response to either synthetic oleanane, 200 nM appeared to be optimal. Treatment with 50 nM triterpenoid yielded only marginal induction of chondrogenesis, while treatment with 500 nM synthetic oleanane gave somewhat variable results. Treatment with […] triterpenoid was invariably toxic to the organ cultures.

[6] = test system: aggrecan; assay: Western blot in bone marrow stem cell cultures: aggrecan; format: cell-based; settings: 100 nM for 7 days, human BMSC cultures, not detectable in control
Experimental: as §1, §2

[7] = test system: type II collagen (collagen IIα1); assay: immunohistochemistry of calvarial organ cultures: type II collagen; format: cell-based, mouse; settings: 200 nM, calvarial sections, not seen in control sections
Experimental: as §3
as §6, with “used. […]” for “used.”

| Compound | expression of chondrocyte marker SOX9 (Western blot) [1] | expression of chondrocyte marker collagen type 2 (Western blot) [2] | COL2A1 expression (quantitative RT-PCR) ([3]; 50 nM) | COL2A1 expression (quantitative RT-PCR) ([3]; 200 nM) | COL2A1 expression (quantitative RT-PCR) ([3]; 500 nM) | SOX9 expression (quantitative RT-PCR) ([4]; 50 nM) | SOX9 expression (quantitative RT-PCR) ([4]; 200 nM) | SOX9 expression (quantitative RT-PCR) ([4]; 500 nM) | induction of chondrogenesis in newborn mouse calvaria (histology) [5] | formation of proteoglycans such as aggrecan (metachromatic toluidine blue staining) [5] | expression of chondrocyte marker aggrecan (Western blot) [6] | formation of type II collagen (collagen IIα1), immunohistochemistry [7] |
| --- | --- | --- | --- | --- | --- | --- | --- | --- | --- | --- | --- | --- |
| CCNC(=O)[C@]12CCC(C)(C)C[C@H]1[C@H]1C(=O)C=C3[C@@]4(C)C=C(C#N)C(=O)C(C)(C)[C@@H]4CC[C@@]3(C)[C@]1(C)CC2 [CDDO-EA] | induced expression | induced expression | 4.12 ± 1.78 | 5.45 ± 1.13 | 3.18 ± 0.71 | 1.64 ± 0.17 | 2.62 ± 0.33 | 3.12 ± 0.38 | marked ability to induce chondrogenesis | induce the formation of proteoglycans | induced expression | induced the formation of type II collagen |
| CC1(C)CC[C@]2(C(=O)n3ccnc3)CC[C@]3(C)[C@H](C(=O)C=C4[C@@]5(C)C=C(C#N)C(=O)C(C)(C)[C@@H]5CC[C@]43C)[C@@H]2C1 [CDDO-Im, 1-(2-cyano-3,12-dioxooleana-1,9(11)-dien-28-oyl) imidazole] | induced expression | induced expression | 1.45 ± 0.09 | 1.32 ± 0.23 | 1.72 ± 0.39 | 1.26 ± 0.08 | 1.33 ± 0.05 | 1.83 ± 0.13 | marked ability to induce chondrogenesis | induce the formation of proteoglycans | induced expression | induced the formation of type II collagen |
